Source: PMC10892288, “Early Stage Preclinical Formulation Strategies to Alter the Pharmacokinetic Profile of Two Small Molecule Therapeutics” (Pharmaceuticals, 2024)

Experiment: Mouse IV infusion of G7883 by iPRECIO pump
Assay type: in vivo, female C57BL-6 mice
Text: This is often a concern for molecules in early drug discovery stages. Various formulation and delivery strategies have been devised to modify the systemic PK profiles of drug molecules, encompassing nanoparticles, microparticles, lipid and polymer conjugation, implanted infusion pump device technologies, and subcutaneous depots. Here, we examined two strategies aimed at maintaining the drug concentration at a designed target concentration for the maximum duration potentially needed for proof of concept studies. The initial approach involved using an implantable device, the iPRECIO pump that allows for a controlled and sustained infusion, as opposed to a typical bolus IV injection. The infusion pump strategies can be a promising tool to achieve the desired delivery profile of a compound, given the solubility requirements based on the intended target release and PK profile. […]
All plasma and cell media concentrations of G7883 and G6893 were determined using liquid chromatography–tandem mass spectrometry after protein precipitation with acetonitrile and injection of the supernatant onto the column (Waters ACQUITY UPLC BEH C18 1.7 μm, 2.1 × 50 mm for G7883 and G6893). […] The lower limit of quantitation of the assay was 5.1 ng/mL, and the dilution quality control concentration was set at 10 ng/mL with acceptance criteria for accuracy and precision of 25%.

Cc1nccnc1-c1nn2c(=O)cc(-c3ccc(C4CCCCC4)cc3)[nH]c2c1C(=O)N1CC(CF)C1 [G7883, 5-(4-cyclohexylphenyl)-3-[3-(fluoromethyl)azetidine-1-carbonyl]-2-(3-methylpyrazin-2-yl)-4H-pyrazolo[1,5-a]pyrimidin-7-one]
plasma concentration relative to target IC50 (3.3 mg/mL in 20% DMSO, 80% PEG400, 1.54 mg/h.kg, over 176 h, mouse): plasma concentrations remained below the target IC50
body weight over time (20% DMSO, 80% PEG400, mouse): prevention of body weight loss over time
